Experimental data from US9648880B2, “Antifungal agents and uses thereof” (University of Massachusetts, priority 2012, dated 2017).

Experiments:
Assay type in all cases: cell-based, Candida albicans
[1] = system: SC5314; experiment: growth rate in liquid culture; conditions: 50 μM; liquid YPD, 30° C.
Protocol: FIGS. 8A-8B. Characterization of compound #4. FIG. 8A is a graphs showing the IC50 for compound #4 measured using GFP adhesion assay. Assay performed as in FIG. 1D with the indicated concentrations of compound #4. Mean and standard deviations from 4 replicate well measurements are shown. FIG. 8B is a graph showing the effect of compound #4 on growth rate of SC5314 in liquid culture. SC5314 was grown in liquid YPD in a 30° C. shaker in the presence of 1% DMSO or compounds #4, 5, 6, 7 or 8 at 50 μM and the OD600 of the culture was measured at the indicated times. Cultures were also observed in the microscope, and we confirmed that the cells retained the budding yeast morphology during the course of this experiment.
We performed several additional experiments to characterize the ability of compound #4 to inhibit Candida adhesion to polystyrene. […] Second, we tested whether compound #4 affects C. albicans cell growth rate. […] Therefore, compound #4 slows C. albicans growth but is minimally toxic to human epithelial cells (FIG. 2C), properties that are desirable for candidate antifungal compounds.
Overnight cultures of […] were diluted to 0.1 OD/ml in fresh YPD and grown in a 30° C. shaker at 200 RPM in the presence of […] of compounds or 1% DMSO. OD 600 nm was measured during the time course to evaluate growth rate.

[2] = system: C. albicans SC5314 cells; experiment: pretreatment of C. albicans cells, then adhesion assay; conditions: 25 μM; alamarBlue or GFP detection
Protocol: FIGS. 11A-11D. Compound #4 can coat surfaces and reduce subsequent fungal adhesion. […] is a graph showing the results of pretreatment of polystyrene with candidate compounds. Indicated compounds at 50 μM were incubated in polystyrene 96-well plates overnight. Wells were washed three times with 100 μl of PBS. C. albicans adhesion was then measured using the vital dye alamarBlue, with no additional drug treatment. FIG. 11B is a graph showing titration of compounds #1, 4 and 9 for pre-binding to polystyrene. Indicated concentrations of compounds were pre-incubated with polystyrene plates as above prior to the adhesion assays. FIG. 11C is a graph showing the inhibition of adhesion by pretreatment of C. albicans SC5314 cells with compound #4 prior to introduction to plastic. SC5314 cells were treated with 25 μM compound #4 or DMSO in liquid culture prior to their introduced into polystyrene plates. Cells were washed with PBS prior to resuspension into SCM and seeding into 96-well plates for adhesion assays using alamarBlue detection of remaining cells. […] FIG. 11D is a graph showing the results of an assay performed as in FIG. 11C, except that SC5314-GFP cells were used, and then detected via fluorescence measurement. edt1 indicates non-adherent mutant cells, PBS indicates background fluorescence in absence of cells. […]

[3] = system: C. albicans hyphae formation; experiment: filamentation assay (hyphal morphogenesis); conditions: for inhibition of hyphal formation and induction of RFP: 12.5 μM, Spider media 16 hours, HWP1-RFP reporter
Description: Because the ability to interconvert between yeast and hyphal morphologies is usually correlated with pathogenicity (Finkel, 2010), we explored this observation in more detail. First, we assessed the effect of our compounds on the induction of hyphae by “Spider” media (Chauhan, 2009). For this experiment, we used a strain that contains the hyphal-specific HWP1 promoter to the Red Fluorescent Protein (RFP) open reading frame (Ganguly, 2011), which provides a molecular reporter for hyphae formation that we used in addition to visual examination of cell morphology. We initially tested each of the compounds that inhibit adhesion to polystyrene (FIG. 1B), as well as compounds #9, Q1 and Q2 (FIG. 3A), at concentration of 12.5 μM. […] Compounds Q1 and Q2 share a “Scaffold 1” backbone with compounds #4 and #9, but contain a quinoline group (FIG. 3A). Therefore, the compounds with a quinoline group can inhibit hyphae formation, but not adhesion to polystyrene or human cells (FIG. 3). […] Additionally, multiple chemical backbones are able to inhibit hyphae formation, because compound #12 has a “Scaffold 2” backbone (Table 2). To better discriminate the inhibitory compounds, we tested #4, 12 and Q1 at lower concentrations. […] Furthermore, as in the polystyrene adhesion assay (FIG. 8), compound #4 is effective at inhibiting hyphae formation at concentrations >2.5 μM.
Overnight cultures of SC5314 or SGH584 were pregrown in uridine-supplemented SC media at 30° C. to an OD600>13 and diluted 1:10 into prewarmed Spider medium (1% Peptone (Difco), 1% Mannitol (Sigma) and 0.2% K2HPO4 (Sigma) (Chauhan, 2009) in glass tubes and grown for 16 hrs at 37° C. shaking at 200 rpm in the presence or absence of drugs as indicated. DIC and fluorescence images were acquired using a Zeiss Axiovert 200 inverted microscope equipped with a Qicam 12-bit Fast 1394 digital CCD camera (Qimaging). Image acquisition was carried out using Openlab 5 software (Improvison).
Because the ability to interconvert between yeast and hyphal morphologies is usually correlated with pathogenicity, we explored this in more detail, examining induction of hyphae upon carbon starvation (using Spider media). We used a strain that contains the Red Fluorescent Protein (RFP) open reading frame driven by the hyphal-specific HWP1 promoter (Ganguly et al., Eukaryotic Cell 10:1448, 2011), which provides a molecular reporter for hyphae formation in addition to cell morphology. […] Therefore, the shared backbone of these compounds correlates with inhibition of multiple activities.
Hyphal morphogenesis is induced by multiple stimuli that act via multiple signal transduction pathways and is mediated by a complex transcriptional network. […] We detected morphological difference between control and compound #4-treated cultures as early as 60 minutes in 10% serum, and 90 minutes in Spider media.

| SMILES | C. albicans cell growth rate (doubling time) [1] | adhesion of pre-treated cells [2] | hyphae formation induced by Spider media ([3]; 10 μM) | inhibition of hyphal formation and induction of RFP [3] | earliest morphological difference between control and treated cultures ([3]; 10% serum) | hyphal response to Spider media and mammalian serum ([3]; 37° C.) | concentrations effective at inhibiting hyphae formation ([3]; Spider media) | earliest morphological difference between control and treated cultures ([3]; Spider media) | formation of hyphae ([3]; Spider media, HWP1-RFP reporter (Example 14)) | time at which effect could be detected after Spider media addition ([3]; protein reporter assay) |
| --- | --- | --- | --- | --- | --- | --- | --- | --- | --- | --- |
| Cc1ccc(C(=O)N2CCN(c3ccc([N+](=O)[O-])cc3)CC2)cc1Cl [Compound 4] | reduced the doubling time | could reduce adhesion of pre-treated cells | completely blocked the hyphae formation | most potently inhibited hyphal formation and induction of RFP | 60 minutes | inhibited the response to both these stimuli | > 2.5 µM | 90 minutes | blocked formation of hyphae | within two hours |
| O=C(c1ccc(Cl)c(Cl)c1)N1CCN(c2ccc([N+](=O)[O-])cc2)CC1 [Compound 9] |  |  |  | most potently inhibited hyphal formation and induction of RFP |  |  |  |  |  |  |
